PubChem BioAssay AID248 (DTP/NCI, 2004)
“And” between values parts separate entries of the source, which are not always exact repeats. Identical values can stand only once. Toxic doses and inconclusive results are not listed.

Tested on: L1210 leukemia ip in BDF1 mice, survival T/C
Assay: NCI In Vivo Anticancer Drug Screen. Data for tumor model L1210 Leukemia (intraperitoneal) in B6D2F1 (BDF1) mice
Conditions: endpoint: mean survival time, higher = longer survival
Method in brief: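 Antitumor effect is assessed in tumor-bearing animals. Survival in the compound arm is compared with a vehicle-dosed control arm and expressed as their quotient.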

[1] = dose: 100.0 mg/kg/injection, schedule: Q04DX003 (ip), vehicle: Klucel (hydroxypropylcellulose) (HPC)
[2] = dose: 200.0 mg/kg/injection, schedule: Q04DX003 (ip), vehicle: Klucel (hydroxypropylcellulose) (HPC)
[3] = dose: 100.0 mg/kg/injection, schedule: Q04DX003 (ip), vehicle: saline
[4] = dose: 200.0 mg/kg/injection, schedule: Q04DX003 (ip), vehicle: saline
[5] = dose: 400.0 mg/kg/injection, schedule: Q04DX003 (ip), vehicle: saline
[6] = dose: 50.0 mg/kg/injection, schedule: Q01DX009 (ip), vehicle: acetone
[7] = dose: 100.0 mg/kg/injection, schedule: Q01DX009 (ip), vehicle: acetone
[8] = dose: 200.0 mg/kg/injection, schedule: Q01DX009 (ip), vehicle: acetone
[9] = dose: 400.0 mg/kg/injection, schedule: Q04DX003 (ip), vehicle: saline with Tween-80
[10] = dose: 100.0 mg/kg/injection, schedule: Q01DX001 (ip), vehicle: carboxymethylcellulose (CMC)
[11] = dose: 200.0 mg/kg/injection, schedule: Q01DX001 (ip), vehicle: carboxymethylcellulose (CMC)

CCOc1ccc2ccccc2c1OP(=O)(OCC)OCC
T/C (dose: 100.0 mg/kg/injection, schedule: Q04DX002 (ip), vehicle: other): 103 % of control | T/C (dose: 200.0 mg/kg/injection, schedule: Q04DX002 (ip), vehicle: other): 113 % of control | T/C (dose: 400.0 mg/kg/injection, schedule: Q04DX002 (ip), vehicle: other): 106 % of control

CCC1CCN(CC)CC1
T/C (dose: 10.0 mg/kg/injection, schedule: Q01DX001 (ip), vehicle: saline): 101 % of control | T/C (dose: 10.0 mg/kg/injection, schedule: Q01DX009 (ip), vehicle: saline): 92 % of control and 102 % of control | T/C (dose: 10.0 mg/kg/injection, schedule: Q04DX002 (ip), vehicle: saline): 100 % of control and 109 % of control | T/C (dose: 10.0 mg/kg/injection, schedule: Q04DX003 (ip), vehicle: saline): 102 % of control | T/C (dose: 20.0 mg/kg/injection, schedule: Q01DX001 (ip), vehicle: saline): 101 % of control | T/C (dose: 20.0 mg/kg/injection, schedule: Q01DX009 (ip), vehicle: saline): 101 % of control and 108 % of control | T/C (dose: 20.0 mg/kg/injection, schedule: Q04DX002 (ip), vehicle: saline): 100 % of control and 117 % of control | T/C (dose: 20.0 mg/kg/injection, schedule: Q04DX003 (ip), vehicle: saline): 103 % of control | T/C (dose: 40.0 mg/kg/injection, schedule: Q01DX001 (ip), vehicle: saline): 95 % of control | T/C (dose: 40.0 mg/kg/injection, schedule: Q01DX009 (ip), vehicle: saline): 94 % of control | T/C (dose: 40.0 mg/kg/injection, schedule: Q04DX002 (ip), vehicle: saline): 94 % of control and 102 % of control | T/C (dose: 40.0 mg/kg/injection, schedule: Q04DX003 (ip), vehicle: saline): 102 % of control

O=C(SC(=S)NCCNC(=S)SC(=O)c1ccccc1)c1ccccc1
T/C (dose: 50.0 mg/kg/injection, schedule: Q04DX002 (ip), vehicle: saline with Tween-80): 95 % of control | T/C (dose: 100.0 mg/kg/injection, schedule: Q04DX002 (ip), vehicle: saline with Tween-80): 87 % of control | T/C (dose: 200.0 mg/kg/injection, schedule: Q04DX002 (ip), vehicle: saline with Tween-80): 98 % of control

COc1ccc(OC)c(NC(=O)Nc2cccc(Cl)c2Cl)c1
T/C [1]: 86 % of control | T/C [2]: 90 % of control | T/C (dose: 400.0 mg/kg/injection, schedule: Q04DX003 (ip), vehicle: Klucel (hydroxypropylcellulose) (HPC)): 88 % of control

O=C1CCC2(CC2)C(=O)O1
T/C [3]: 91 % of control | T/C [4]: 95 % of control | T/C [5]: 91 % of control

O=S(=O)(c1ccccc1)C1CN=NC1c1ccccc1 (stereo not given)
T/C [6]: 95 % of control | T/C (dose: 100.0 mg/kg/injection, schedule: Q01DX001 (ip), vehicle: saline): 100 % of control | T/C [7]: 93 % of control | T/C (dose: 200.0 mg/kg/injection, schedule: Q01DX001 (ip), vehicle: saline): 94 % of control | T/C [8]: 92 % of control | T/C (dose: 400.0 mg/kg/injection, schedule: Q01DX001 (ip), vehicle: saline): 96 % of control

CN=C1N[N+]2=CCCCC2(C)S1 (stereo not given)
T/C (dose: 0.2 mg/kg/injection, schedule: Q03HX024 (ip), vehicle: saline): 96 % of control | T/C (dose: 0.39 mg/kg/injection, schedule: Q03HX024 (ip), vehicle: saline): 100 % of control | T/C (dose: 0.78 mg/kg/injection, schedule: Q03HX024 (ip), vehicle: saline): 93 % of control | T/C (dose: 1.56 mg/kg/injection, schedule: Q03HX024 (ip), vehicle: saline): 95 % of control | T/C (dose: 3.13 mg/kg/injection, schedule: Q03HX024 (ip), vehicle: saline): 101 % of control

COc1ccc(COC(=O)Nc2ccccc2C(F)(F)F)cc1
T/C (dose: 100.0 mg/kg/injection, schedule: Q01DX009 (ip), vehicle: gum acacia): 89 % of control | T/C (dose: 200.0 mg/kg/injection, schedule: Q01DX009 (ip), vehicle: gum acacia): 89 % of control

CCCCCCCc1nc(/N=N/N(C)C)c(C(N)=O)[nH]1
T/C (dose: 100.0 mg/kg/injection, schedule: Q04DX003 (ip), vehicle: saline with Tween-80): 101 % of control | T/C (dose: 200.0 mg/kg/injection, schedule: Q01DX009 (ip), vehicle: saline with Tween-80): 91 % of control | T/C (dose: 200.0 mg/kg/injection, schedule: Q04DX003 (ip), vehicle: saline with Tween-80): 98 % of control | T/C [9]: 110 % of control

CC1(/C=N\NC(N)=O)CC2C=CC1C2 (stereo not given)
T/C [1]: 104 % of control | T/C [2]: 98 % of control

C1OCC2(CO1)COCOC2
T/C [6]: 95 % of control | T/C [7]: 91 % of control | T/C [3]: 95 % of control | T/C [8]: 93 % of control | T/C [4]: 103 % of control | T/C [5]: 105 % of control

Cc1ccc(O)c(C(=O)C(C)CCCC(C)C)c1 (stereo not given)
T/C (dose: 75.0 mg/kg/injection, schedule: Q01DX009 (ip), vehicle: Klucel (hydroxypropylcellulose) (HPC)): 89 % of control | T/C (dose: 150.0 mg/kg/injection, schedule: Q01DX009 (ip), vehicle: Klucel (hydroxypropylcellulose) (HPC)): 94 % of control | T/C (dose: 300.0 mg/kg/injection, schedule: Q01DX009 (ip), vehicle: Klucel (hydroxypropylcellulose) (HPC)): 100 % of control

COc1ccccc1N=C(N)N=C(N)N
T/C (dose: 75.0 mg/kg/injection, schedule: Q01DX001 (ip), vehicle: saline): 96 % of control | T/C (dose: 150.0 mg/kg/injection, schedule: Q01DX001 (ip), vehicle: saline): 104 % of control

CC(=O)N(C)c1ccc(NC(=O)Nc2cccc(F)c2)cc1
T/C (dose: 12.5 mg/kg/injection, schedule: Q01DX009 (ip), vehicle: saline with Tween-80): 104 % of control | T/C (dose: 25.0 mg/kg/injection, schedule: Q01DX009 (ip), vehicle: saline with Tween-80): 105 % of control | T/C (dose: 50.0 mg/kg/injection, schedule: Q01DX009 (ip), vehicle: saline with Tween-80): 96 % of control

N=c1nc(N)c(N)c(N)n1O
T/C [10]: 94 % of control | T/C [11]: 97 % of control | T/C (dose: 400.0 mg/kg/injection, schedule: Q01DX001 (ip), vehicle: carboxymethylcellulose (CMC)): 97 % of control

CCOC(=O)N(c1ccccc1)C1OCC(OC(C)=O)C(OC(C)=O)C1OC(C)=O (stereo not given)
T/C (dose: 100.0 mg/kg/injection, schedule: Q01DX009 (ip), vehicle: saline): 97 % of control | T/C (dose: 100.0 mg/kg/injection, schedule: Q04DX003 (ip), vehicle: water): 97 % of control | T/C (dose: 200.0 mg/kg/injection, schedule: Q01DX009 (ip), vehicle: saline): 93 % of control | T/C (dose: 200.0 mg/kg/injection, schedule: Q04DX003 (ip), vehicle: water): 97 % of control | T/C (dose: 400.0 mg/kg/injection, schedule: Q01DX009 (ip), vehicle: saline): 94 % of control | T/C (dose: 400.0 mg/kg/injection, schedule: Q04DX003 (ip), vehicle: water): 94 % of control

COc1ccccc1OCCOCCN(C)C1CC2CCC1(C)C2(C)C (stereo not given)
T/C [1]: 93 % of control

CN(C)c1ccc(C(=O)NO)cc1
T/C (dose: 100.0 mg/kg/injection, schedule: Q01DX009 (ip), vehicle: Klucel (hydroxypropylcellulose) (HPC)): 97 % of control | T/C (dose: 200.0 mg/kg/injection, schedule: Q01DX009 (ip), vehicle: Klucel (hydroxypropylcellulose) (HPC)): 105 % of control | T/C (dose: 400.0 mg/kg/injection, schedule: Q01DX009 (ip), vehicle: Klucel (hydroxypropylcellulose) (HPC)): 100 % of control

Nc1nc(N)c(N=Nc2ccccc2)c(=O)[nH]1
T/C (dose: 50.0 mg/kg/injection, schedule: Q01DX001 (ip), vehicle: carboxymethylcellulose (CMC)): 88 % of control | T/C (dose: 50.0 mg/kg/injection, schedule: Q04DX003 (ip), vehicle: carboxymethylcellulose (CMC)): 94 % of control | T/C [10]: 90 % of control | T/C (dose: 100.0 mg/kg/injection, schedule: Q04DX003 (ip), vehicle: carboxymethylcellulose (CMC)): 93 % of control | T/C [11]: 93 % of control | T/C (dose: 200.0 mg/kg/injection, schedule: Q04DX003 (ip), vehicle: carboxymethylcellulose (CMC)): 94 % of control

CCCCc1ccc2nc(NC(=O)OC)[nH]c2c1
T/C (dose: 50.0 mg/kg/injection, schedule: Q01DX009 (oral), vehicle: saline with Tween-80): 99 % of control | T/C (dose: 100.0 mg/kg/injection, schedule: Q01DX009 (oral), vehicle: saline with Tween-80): 109 % of control | T/C (dose: 100.0 mg/kg/injection, schedule: Q04DX003 (oral), vehicle: saline with Tween-80): 105 % of control | T/C (dose: 200.0 mg/kg/injection, schedule: Q01DX009 (oral), vehicle: saline with Tween-80): 108 % of control | T/C [4]: 172 % of control | T/C (dose: 200.0 mg/kg/injection, schedule: Q04DX003 (oral), vehicle: saline with Tween-80): 105 % of control | T/C (dose: 300.0 mg/kg/injection, schedule: Q04DX003 (ip), vehicle: saline): 160 % of control | T/C [9]: 107 % of control | T/C (dose: 400.0 mg/kg/injection, schedule: Q04DX003 (oral), vehicle: saline with Tween-80): 114 % of control
